In the test the target is human PAD4 (hPAD4) (Homo sapiens, UniProt Q9UM07). Kind of test: RFMS human PAD4 functional assay (rapid-fire mass spectrum). In kind it is biochemical. To be noted: 5 nM hPAD4 enzyme, 250 μM BAEE, 50 μM Calcium; 30 min preincubation, 90 min reaction at 37° C. An outline of the steps: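 PAD4 (10 nM) preincubated 30 min with compound (top final 50 μM), then BAEE substrate added in pH 7.5 HEPES buffer with DTT, 50 μM calcium, TPEN; 90 min at 37° C. After TCA quench, citrulline derivatized with phenyl glyoxal (4 mM final, 30 min, 37° C) and quantified by RapidFire MS against internal standard.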

The record followed here is patent publication US12692254B2, “Benzimidazole inhibitors of PAD enzymes” (BRISTOL-MYERS SQUIBB COMPANY, priority 2018, dated 2026).

SMILES strings stand for the structures.

By IC50 is commonly meant the midpoint of a concentration-inhibition curve.

Chain of human PAD4 (hPAD4) (Q9UM07 whole entry): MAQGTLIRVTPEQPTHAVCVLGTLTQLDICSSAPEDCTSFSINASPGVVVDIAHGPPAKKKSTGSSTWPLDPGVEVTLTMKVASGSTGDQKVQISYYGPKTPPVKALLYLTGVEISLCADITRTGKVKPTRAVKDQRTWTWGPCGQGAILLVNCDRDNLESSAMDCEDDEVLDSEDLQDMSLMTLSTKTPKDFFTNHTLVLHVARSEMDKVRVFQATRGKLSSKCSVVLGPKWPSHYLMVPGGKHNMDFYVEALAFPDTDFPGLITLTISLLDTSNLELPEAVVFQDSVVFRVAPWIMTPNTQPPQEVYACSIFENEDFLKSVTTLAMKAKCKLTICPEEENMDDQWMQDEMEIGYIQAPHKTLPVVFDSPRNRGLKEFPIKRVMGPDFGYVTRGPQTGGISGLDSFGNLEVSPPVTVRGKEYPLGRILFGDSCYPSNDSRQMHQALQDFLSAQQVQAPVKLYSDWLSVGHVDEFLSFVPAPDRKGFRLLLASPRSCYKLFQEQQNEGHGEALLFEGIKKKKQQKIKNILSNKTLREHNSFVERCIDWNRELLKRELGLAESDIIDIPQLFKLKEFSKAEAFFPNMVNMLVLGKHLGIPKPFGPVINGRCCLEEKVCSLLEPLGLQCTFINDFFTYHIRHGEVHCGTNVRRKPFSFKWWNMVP

Consider `COc1cc(C(=O)N2C[C@H]3CC[C@@H]2[C@@H]3N)cc2nc(-c3cc4cccnc4n3CC3CC3)n(CC3CN(c4ncc(C#N)cc4Br)C3)c12` [Example 29, 6-[3-({5-[(1R,4R,7R)-7-amino-2-azabicyclo[2.2.1]heptane-2-carbonyl]-2-[1-(cyclopropylmethyl)-1H-pyrrolo[2,3-b]pyridin-2-yl]-7-methoxy-1H-1,3-benzodiazol-1-yl}methyl)azetidin-1-yl]-5-bromopyridine-3-carbonitrile], for which the IC50 was 78 nM.

Regarding `COc1cc(C(=O)N2CC3CCC2[C@@H]3N)cc2nc(-c3cc4cccnc4n3CC3CC3)n(Cc3cnn(-c4ccc[n+]([O-])c4)c3)c12` (stereo partly drawn) [Example 377, 3-[4-({5-[(7R)-7-amino-2-azabicyclo[2.2.1]heptane-2-carbonyl]-2-[1-(cyclopropylmethyl)-1H-pyrrolo[2,3-b]pyridin-2-yl]-7-methoxy-1H-1,3-benzodiazol-1-yl}methyl)-1H-pyrazol-1-yl]pyridin-1-ium-1-olate], the IC50 was 37 nM.

On to `COc1cc(C(=O)N2C[C@H]3CC[C@@H]2[C@@H]3N)cc2nc(-c3cc4cccnc4n3C)n(CC3CN(c4nccnc4C#N)C3)c12` [Example 39, 3-[3-({5-[(1R,4R,7R)-7-amino-2-azabicyclo[2.2.1]heptane-2-carbonyl]-7-methoxy-2-{1-methyl-1H-pyrrolo[2,3-b]pyridin-2-yl}-1H-1,3-benzodiazol-1-yl}methyl)azetidin-1-yl]pyrazine-2-carbonitrile], for which the 50% inhibitory concentration (IC50) amounted to 94 nM.

For `COc1cc(C(=O)N2C[C@H]3CC[C@@H]2[C@@H]3N)cc2nc(-c3cc4ccccc4n3CC3CC3)n(Cc3cccnc3)c12` [Example 246, (1R,4R,7R)-2-{2-[1-(cyclopropylmethyl)-1H-indol-2-yl]-7-methoxy-1-[(pyridin-3-yl)methyl]-1H-1,3-benzodiazole-5-carbonyl}-2-azabicyclo[2.2.1]heptan-7-amine], the 50% inhibitory concentration (IC50) came to 25 nM.

For the compound `COc1cc(C(=O)N2C[C@H]3CC[C@@H]2[C@@H]3N)cc2nc(-c3cc4cccnc4n3CC3CC3)n(CC3CN(c4ccnc(C)n4)C3)c12` [Example 16, (1R,4R,7R)-2-{2-[1-(cyclopropylmethyl)-1H-pyrrolo[2,3-b]pyridin-2-yl]-7-methoxy-1-{[1-(2-methylpyrimidin-4-yl)azetidin-3-yl]methyl}-1H-1,3-benzodiazole-5-carbonyl}-2-azabicyclo[2.2.1]heptan-7-amine], the 50% inhibitory concentration (IC50) is 48 nM.

As to `COc1cc(C(=O)N2CC3CCC2[C@@H]3N)cc2nc(-c3cc4ccccc4n3CC3CC3)n(CCc3cnn(C)c3)c12` (stereo partly drawn) [Example 511, (7R)-2-{2-[1-(cyclopropylmethyl)-1H-indol-2-yl]-7-methoxy-1-[2-(1-methyl-1H-pyrazol-4-yl)ethyl]-1H-l,3-benzodiazole-5-carbonyl}-2-azabicyclo[2.2.1]heptan-7-amine], the IC50 worked out at 338 nM.

Turning to `COc1cc(C(=O)N2CC3CCC2[C@@H]3N)cc2nc(-c3cc4ccccc4n3CC3CC3)n(C[C@H]3CCN(c4ccnc(C)n4)C3)c12` (stereo partly drawn) [Example 224, (1R.,4R,7R)-2-{2-[1-(cyclopropylmethyl)-1H-indol-2-yl]-7-methoxy-1-{[(3S)-1-(2-methylpyrimidin-4-yl)pyrrolidin-3-yl]methyl}-1H-1,3-benzodiazole-5-carbonyl}-2-azabicyclo[2.2.1]heptan-7-amine], the IC50 was 19 nM.

In the case of `COC(=O)N[C@H]1C[C@H](n2c(-c3cc4cccnc4n3CC3CC3)nc3cc(C(=O)N4CC5CCC4[C@@H]5N)cc(OC)c32)C1` (stereo partly drawn) [Example 296, methyl N-[(1r,3r)-3-{5-[(1R,4R,7R)-7-amino-2-azabicyclo[2.2.1]heptane-2-carbonyl]-2-[1-(cyclopropylmethyl)-1H-pyrrolo[2,3-b]pyridin-2-yl]-7-methoxy-1H-1,3-benzodiazol-1-yl}cyclobutyl]carbamate], the IC50 came out at 582 nM.

`COc1cc(C(=O)N2CC3CCC2[C@@H]3N)cc2nc(-c3cc4ccccc4n3CC3CC3)n(Cc3cnn(-c4cncc(F)c4)c3)c12` (stereo partly drawn) [Example 359, (7R)-2-{2-[1-(cyclopropylmethyl)-1H-indol-2-yl]-1-{[1-(5-fluoropyridin-3-yl)-1H-pyrazol-4-yl]methyl}-7-methoxy-1H-1,3-benzodiazole-5-carbonyl}-2-azabicyclo[2.2.1]heptan-7-amine]: the IC50 worked out at 23 nM.

For the compound `COc1cc(C(=O)N2CC3CCC2[C@@H]3N)cc2nc(-c3cc4ccccc4n3CC3CC3)n(CC3CN(C(=O)c4ccc(C#N)nc4)C3)c12` (stereo partly drawn) [Example 415, 5-[3-({5-[(7R)-7-amino-2-azabicyclo[2.2.1]heptane-2-carbonyl]-2-{1-(cyclopropylmethyl)-1H-indol-2-yl]-7-methoxy-1H-1,3-benzodiazol-1-yl}methyl)azetidine-1-carbonyl]pyridine-2-carbonitrile], the IC50 was found to be 41 nM.

Consider `COc1cc(C(=O)N2C[C@H]3CC[C@@H]2[C@@H]3N)cc2nc(-c3cc4ccccc4n3CC3CC3)n(Cc3ccncc3)c12` [Example 272, (1R,4R,7R)-2-(2-[1-(cyclopropylmethyl)-1H-indol-2-yl]-7-methoxy-1-[(pyridin-4-yl)methyl]-1H-1,3-benzodiazole-5-carbonyl}-2-azabicyclo[2.2.1]heptan-7-amine], for which the IC50 came to 179 nM.

Take `COc1cc(C(=O)N2C[C@H]3CC[C@@H]2[C@@H]3N)cc2nc(-c3cc4cccnc4n3CC3CC3)n(CC3CN(c4nc(O)ncc4C#N)C3)c12` [Example 79, 4-[3-({5-[(1R,4R,7R)-7-amino-2-azabicyclo[2.2.1]heptane-2-carbonyl]-2-[1-(cyclopropylmethyl)-1H-pyrrolo[2,3-b]pyridin-2-yl]-7-methoxy-1H-1,3-benzodiazol-1-yl}methyl)azetidin-1-yl]-2-hydroxypyrimidine-5-carbonitrile]: the IC50 stood at 400 nM.

Take `COc1cc(C(=O)N2C[C@H]3CC[C@@H]2[C@@H]3N)cc2nc(-c3cc4cccnc4n3C)n(C[C@H]3CCN(c4cncc(C#N)c4)C3)c12` [Example 215, 5[(3S)-3-({5-[(1R,4R,7R)-7-amino-2-azabicyclo[2.2.1]heptane-2-carbonyl]-7-methoxy-2-{1-methyl-1H-pyrrolo[2,3-b]pyridin-2-yl}-1H-1,3-benzodiazol-1-yl}methyl)pyrrolidin-1-yl]pyridine-3-carbonitrile]: the IC50 is 148 nM.

`COc1cc(C(=O)N2C[C@H]3CC[C@@H]2[C@@H]3N)cc2nc(-c3cc4ccccc4n3CC3CC3)n(CC3CN(c4cncnc4C#N)C3)c12` [Example 11, 5-[3-({5-[(1R,4R,7R)-7-amino-2-azabicyclo[2.2.1]heptane-2-carbonyl]-2-[1-(cyclopropylmethyl)-1H-indol-2-yl]-7-methoxy-1H-1,3-benzodiazol-1-yl}methyl)azetidin-1-yl]pyrimidine-4-carbonitrile]: the half-maximal inhibitory concentration (IC50) worked out at 37 nM.

As for `COc1cc(C(=O)N2CC3CCC2[C@@H]3N)cc2nc(-c3cc4cccnc4n3CC3CC3)n(Cc3cnn(-c4ccccc4)c3)c12` (stereo partly drawn) [Example 367, (7R)-2-{2-[1-(cyclopropylmethyl)-1H-pyrrolo[2,3-b]pyridin-2-yl]-7-methoxy-1-[(1-phenyl-1H-pyrazol-4-yl)methyl]-1H-1,3-benzodiazole-5-carbonyl}-2-azabicyclo[2.2.1]heptan-7-amine], the IC50 was determined as 29 nM.

Take `COc1cc(C(=O)N2C[C@H]3CC[C@@H]2[C@@H]3N)cc2nc(-c3cc4cccnc4n3CC3CC3)n(C3CCNCC3)c12` [Example 309, (1R,4R,7R)-2-{2-[1-(cyclopropylmethyl)-1H-pyrrolo[2,3-b]pyridin-2-yl]-7-methoxy-1-(piperidin-4-yl)-1H-1,3-benzodiazole-5-carbonyl}-2-azabicyclo[2.2.1]heptan-7-amine]: the 50% inhibitory concentration (IC50) was 1160 nM.

Turning to `COc1cc(C(=O)N2C[C@H]3CC[C@@H]2[C@@H]3N)cc2nc(-c3cc4cccnc4n3CC3CC3)n(CC3CCN(C(=O)c4ccnc(Cl)n4)CC3)c12` [Example 230, (1R,4R,7R)-2-(1-{[1-(2-chloropyrimidine-4-carbonyl)piperidin-4-yl]methyl}-2-[1-(cyclopropylmethyl)-1H-pyrrolo[2,3-b]pyridin-2-yl]-7-methoxy-1H-1,3-benzodiazole-5-carbonyl)-2-azabicyclo[2.2.1]heptan-7-amine], the IC50 worked out at 237 nM.

On to `CC#CC(=O)N1CC(Cn2c(-c3cc4cccnc4n3CC3CC3)nc3cc(C(=O)N4C[C@H]5CC[C@@H]4[C@@H]5N)cc(OC)c32)C1` [Example 104, 1-[3-({5-[(1R,4R,7R)-7-amino-2-azabicyclo[2.2.1]heptane-2-carbonyl]-2-[1-(cyclopropylmethyl)-1H-pyrrolo[2,3-b]pyridin-2-yl]-7-methoxy-1H-1,3-benzodiazol-1-yl}methyl)azetidin-1-yl]but-2-yn-1-one], for which the IC50 amounted to 27 nM.

`COc1cc(C(=O)N2C[C@H]3CC[C@@H]2[C@@H]3N)cc2nc(-c3cc4ccccc4n3CC3CC3)n(Cc3cnn(C)c3)c12` [Example 242, (1R,4R,7R)-2-{2-[1-(cyclopropylmethyl)-1H-indol-2-yl]-7-methoxy-1-[(1-methyl-1H-pyrazol-4-yl)methyl]-1H-1,3-benzodiazole-5-carbonyl}-2-azabicyclo[2.2.1]heptan-7-amine]: the IC50 worked out at 41 nM.

As for `COc1cc(C(=O)N2CC3CCC2[C@@H]3N)cc2nc(-c3cc4cccnc4n3CC3CC3)n(CC3CN(S(=O)(=O)c4cccc(F)c4)C3)c12` (stereo partly drawn) [Example 333], the IC50 was 222 nM.

Consider `COc1cc(C(=O)N2C[C@H]3CC[C@@H]2[C@@H]3N)cc2nc(-c3cc4ccccc4n3CC3CC3)n(CC3CN(C(=O)c4cc(C#N)ccc4F)C3)c12` [Example 174, 3-[3-({5-[(1R,4R,7R)-7-amino-2-azabicyclo[2.2.1]heptane-2-carbonyl]-2-[1-(cyclopropylmethyl)-1H-indol-2-yl]-7-methoxy-1H-1,3-benzodiazol-1-yl}methyl)azetidine-1-carbonyl]-4-fluorobenzonitrile], for which the IC50 came to 64 nM.
